{
  "source": "paper PMC9270327",
  "about": "(Communications Biology, 2022)",
  "key": {"[1]": {"biological_target": "T1, TMPRSS2 (Homo sapiens, UniProt O15393)", "T1 sequence (O15393 whole entry)": "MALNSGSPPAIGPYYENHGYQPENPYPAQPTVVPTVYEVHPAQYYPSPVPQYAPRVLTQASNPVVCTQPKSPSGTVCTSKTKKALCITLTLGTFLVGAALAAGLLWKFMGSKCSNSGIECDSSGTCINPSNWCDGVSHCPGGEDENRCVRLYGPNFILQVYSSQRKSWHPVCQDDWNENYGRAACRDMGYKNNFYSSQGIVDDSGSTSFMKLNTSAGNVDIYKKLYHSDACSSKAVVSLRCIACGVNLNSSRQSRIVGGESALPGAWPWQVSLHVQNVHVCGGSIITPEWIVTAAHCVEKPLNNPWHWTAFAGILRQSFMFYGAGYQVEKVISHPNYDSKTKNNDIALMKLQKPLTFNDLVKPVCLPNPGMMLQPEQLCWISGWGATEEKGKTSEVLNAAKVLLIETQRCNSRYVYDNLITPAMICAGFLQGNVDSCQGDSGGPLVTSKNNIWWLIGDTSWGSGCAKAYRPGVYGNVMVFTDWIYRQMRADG", "assay": "Plasma stability: residual TMPRSS2 inhibition after incubation in human plasma", "description": "(§1) The activity of the compounds against the recombinant human enzymes was determined in enzyme inhibition assays. […] The measurements were performed on a Tecan infinite® M1000 and the fluorescence intensity was measured by exciting the AMC fluorophore at 380 nm wavelength and recording emission at 460 nm wavelength. […] Fluorescence intensities and absorption were measured every 2 min for 2 h or as endpoint after 2 h. […] To determine the IC50 values, the concentration-response data were plotted with the program GraphPad prism version 8.4.2 (San Diego, California) and a nonlinear regression fit with the equation [Inhibitor] vs. normalized response was applied. The inhibitory constant Ki was calculated from the IC50 values using the Cheng–Prusoff equation (Ki = IC50/[S]/KM) for competitive reversible inhibitors[66].\n(§2) The stability of the inhibitors was measured according to a modified procedure from ref. [67]. […] At indicated timepoints, 100 µL samples were taken and mixed with 200 µL of ethanol to precipitate proteins. […] The supernatant was aspirated and analyzed using analytical HPLC. The residual inhibitory constants Ki after incubation was assessed by mixing serial dilutions of the inhibitor with recombinant TMPRSS2 as described above.\nShown are the means ± SD of n=1 experiment performed in triplicates."}, "[2]": {"biological_target": "T1, TMPRSS2", "description": "Negative ctrl: no inhibitor, positive ctrl: inhibitor in assay buffer. d Inhibitory constants Ki as determined from (a–c). Shown are the means ± SD of n = 1 experiment performed in triplicates. No inh. no inhibition.\nas §1, §2"}, "[3]": {"details": "inhibitor 166.5 nM, positive ctrl"}, "[4]": {"details": "inhibitor 1665 nM, positive ctrl"}},
  "note": "Counter-ions that a name gives are not always drawn. Like-named read-outs stand apart in the source and are kept apart here.",
  "data": [
    {"smiles": "CN(C)C(=O)COC(=O)Cc1ccc(OC(=O)c2ccc(NC(=N)N)cc2)cc1", "note": "[CM, camostat mesylate, reference compound]", "values": [
      {"measurement": "TMPRSS2 activity, Mean (0 nM = 100)", "setting": "[1]; inhibitor 166.5 nM, 120 min in plasma", "result": 7.418},
      {"measurement": "TMPRSS2 activity, Mean (0 nM = 100)", "setting": "[1]; inhibitor 166.5 nM, 24 h in plasma", "result": 28.8196},
      {"measurement": "TMPRSS2 activity, Mean (0 nM = 100)", "setting": "[1]; inhibitor 166.5 nM, 10 d in plasma", "result": 97.9296},
      {"measurement": "TMPRSS2 activity, Mean (0 nM = 100)", "setting": "[1]; [3]", "result": 2.192},
      {"measurement": "TMPRSS2 activity, Mean (0 nM = 100)", "setting": "[1]; inhibitor 1665 nM, 0 min in plasma", "result": 4.824},
      {"measurement": "TMPRSS2 activity, Mean (0 nM = 100)", "setting": "[1]; inhibitor 1665 nM, 30 min in plasma", "result": 0.6431},
      {"measurement": "TMPRSS2 activity, Mean (0 nM = 100)", "setting": "[1]; inhibitor 1665 nM, 60 min in plasma", "result": 1.811},
      {"measurement": "TMPRSS2 activity, Mean (0 nM = 100)", "setting": "[1]; inhibitor 1665 nM, 120 min in plasma", "result": 6.253},
      {"measurement": "TMPRSS2 activity, Mean (0 nM = 100)", "setting": "[1]; inhibitor 1665 nM, 24 h in plasma", "result": 5.605},
      {"measurement": "TMPRSS2 activity, Mean (0 nM = 100)", "setting": "[1]; inhibitor 1665 nM, 10 d in plasma", "result": 88.1928},
      {"measurement": "TMPRSS2 activity, Mean (0 nM = 100)", "setting": "[1]; [4]", "result": 0.4038},
      {"measurement": "residual inhibitory activity against TMPRSS2 after incubation in body fluids", "setting": "[2]; human serum / plasma, up to 10 days", "result": "inactive"},
      {"measurement": "reduction of activity against TMPRSS2 upon addition to serum", "setting": "[2]; immediately after addition to human serum", "result": "around 60 fold"},
      {"measurement": "TMPRSS2 activity, Mean (0 nM = 100)", "setting": "[2]; inhibitor 0.0167 nM, 0 min in serum", "result": 97.0909},
      {"measurement": "TMPRSS2 activity, Mean (0 nM = 100)", "setting": "[2]; inhibitor 0.0167 nM, 30 min in serum", "result": 98.7509},
      {"measurement": "TMPRSS2 activity, Mean (0 nM = 100)", "setting": "[2]; inhibitor 0.0167 nM, 60 min in serum", "result": 96.1122},
      {"measurement": "TMPRSS2 activity, Mean (0 nM = 100)", "setting": "[2]; inhibitor 0.0167 nM, 120 min in serum", "result": 96.1122},
      {"measurement": "TMPRSS2 activity, Mean (0 nM = 100)", "setting": "[2]; inhibitor 0.0167 nM, 24 h in serum", "result": 109.9729},
      {"measurement": "TMPRSS2 activity, Mean (0 nM = 100)", "setting": "[2]; inhibitor 0.0167 nM, 10 d in serum", "result": 104.3134},
      {"measurement": "TMPRSS2 activity, Mean (0 nM = 100)", "setting": "[2]; inhibitor 0.0167 nM, positive ctrl", "result": 91.4692},
      {"measurement": "TMPRSS2 activity, Mean (0 nM = 100)", "setting": "[2]; inhibitor 0.167 nM, 0 min in serum", "result": 95.7227},
      {"measurement": "TMPRSS2 activity, Mean (0 nM = 100)", "setting": "[2]; inhibitor 0.167 nM, 30 min in serum", "result": 96.8742},
      {"measurement": "TMPRSS2 activity, Mean (0 nM = 100)", "setting": "[2]; inhibitor 0.167 nM, 60 min in serum", "result": 95.2722},
      {"measurement": "TMPRSS2 activity, Mean (0 nM = 100)", "setting": "[2]; inhibitor 0.167 nM, 120 min in serum", "result": 95.2722},
      {"measurement": "TMPRSS2 activity, Mean (0 nM = 100)", "setting": "[2]; inhibitor 0.167 nM, 24 h in serum", "result": 109.0078},
      {"measurement": "TMPRSS2 activity, Mean (0 nM = 100)", "setting": "[2]; inhibitor 0.167 nM, 10 d in serum", "result": 107.9350},
      {"measurement": "TMPRSS2 activity, Mean (0 nM = 100)", "setting": "[2]; inhibitor 0.167 nM, positive ctrl", "result": 67.2760},
      {"measurement": "TMPRSS2 activity, Mean (0 nM = 100)", "setting": "[2]; inhibitor 1.665 nM, 0 min in serum", "result": 91.6733},
      {"measurement": "TMPRSS2 activity, Mean (0 nM = 100)", "setting": "[2]; inhibitor 1.665 nM, 30 min in serum", "result": 104.2530},
      {"measurement": "TMPRSS2 activity, Mean (0 nM = 100)", "setting": "[2]; inhibitor 1.665 nM, 60 min in serum", "result": 90.9967},
      {"measurement": "TMPRSS2 activity, Mean (0 nM = 100)", "setting": "[2]; inhibitor 1.665 nM, 120 min in serum", "result": 90.9967},
      {"measurement": "TMPRSS2 activity, Mean (0 nM = 100)", "setting": "[2]; inhibitor 1.665 nM, 24 h in serum", "result": 110.5140},
      {"measurement": "TMPRSS2 activity, Mean (0 nM = 100)", "setting": "[2]; inhibitor 1.665 nM, 10 d in serum", "result": 105.0630},
      {"measurement": "TMPRSS2 activity, Mean (0 nM = 100)", "setting": "[2]; inhibitor 1.665 nM, positive ctrl", "result": 16.5425},
      {"measurement": "TMPRSS2 activity, Mean (0 nM = 100)", "setting": "[2]; inhibitor 16.65 nM, 0 min in serum", "result": 58.3113},
      {"measurement": "TMPRSS2 activity, Mean (0 nM = 100)", "setting": "[2]; inhibitor 16.65 nM, 30 min in serum", "result": 66.2869},
      {"measurement": "TMPRSS2 activity, Mean (0 nM = 100)", "setting": "[2]; inhibitor 16.65 nM, 60 min in serum", "result": 73.7709},
      {"measurement": "TMPRSS2 activity, Mean (0 nM = 100)", "setting": "[2]; inhibitor 16.65 nM, 120 min in serum", "result": 73.7709},
      {"measurement": "TMPRSS2 activity, Mean (0 nM = 100)", "setting": "[2]; inhibitor 16.65 nM, 24 h in serum", "result": 114.2941},
      {"measurement": "TMPRSS2 activity, Mean (0 nM = 100)", "setting": "[2]; inhibitor 16.65 nM, 10 d in serum", "result": 105.5411},
      {"measurement": "TMPRSS2 activity, Mean (0 nM = 100)", "setting": "[2]; inhibitor 16.65 nM, positive ctrl", "result": 3.2273},
      {"measurement": "TMPRSS2 activity, Mean (0 nM = 100)", "setting": "[2]; inhibitor 166.5 nM, 0 min in serum", "result": 7.4453},
      {"measurement": "TMPRSS2 activity, Mean (0 nM = 100)", "setting": "[2]; inhibitor 166.5 nM, 30 min in serum", "result": 7.7321},
      {"measurement": "TMPRSS2 activity, Mean (0 nM = 100)", "setting": "[2]; inhibitor 166.5 nM, 60 min in serum", "result": 7.7056},
      {"measurement": "TMPRSS2 activity, Mean (0 nM = 100)", "setting": "[2]; inhibitor 166.5 nM, 120 min in serum", "result": 7.7056},
      {"measurement": "TMPRSS2 activity, Mean (0 nM = 100)", "setting": "[2]; inhibitor 166.5 nM, 24 h in serum", "result": 43.5256},
      {"measurement": "TMPRSS2 activity, Mean (0 nM = 100)", "setting": "[2]; inhibitor 166.5 nM, 10 d in serum", "result": 104.8964},
      {"measurement": "TMPRSS2 activity, Mean (0 nM = 100)", "setting": "[2]; [3]", "result": 1.7660},
      {"measurement": "TMPRSS2 activity, Mean (0 nM = 100)", "setting": "[2]; inhibitor 1665 nM, 0 min in serum", "result": 2.9461},
      {"measurement": "TMPRSS2 activity, Mean (0 nM = 100)", "setting": "[2]; inhibitor 1665 nM, 30 min in serum", "result": 4.0032},
      {"measurement": "TMPRSS2 activity, Mean (0 nM = 100)", "setting": "[2]; inhibitor 1665 nM, 60 min in serum", "result": 3.9955},
      {"measurement": "TMPRSS2 activity, Mean (0 nM = 100)", "setting": "[2]; inhibitor 1665 nM, 120 min in serum", "result": 3.9955},
      {"measurement": "TMPRSS2 activity, Mean (0 nM = 100)", "setting": "[2]; inhibitor 1665 nM, 24 h in serum", "result": 8.1597},
      {"measurement": "TMPRSS2 activity, Mean (0 nM = 100)", "setting": "[2]; inhibitor 1665 nM, 10 d in serum", "result": 96.3530},
      {"measurement": "TMPRSS2 activity, Mean (0 nM = 100)", "setting": "[2]; [4]", "result": 2.6461}
    ]}
  ]
}
